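GI50: concentration for 50% inhibition of growth. Definition used: TGI = concentration required for complete inhibition of growth.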
How the values were obtained:
Assay in all cases: DTP human tumour cell line panel, 384-well format
ACHN renal = test system: ACHN renal
T-47D breast = test system: T-47D breast
BT-549 breast = test system: BT-549 breast
HCT-15 colon = test system: HCT-15 colon
LOX IMVI melanoma = test system: LOX IMVI melanoma
SF-295 CNS = test system: SF-295 CNS
MDA-MB-231 breast = test system: MDA-MB-231 breast
UACC-257 melanoma = test system: UACC-257 melanoma
SN12C renal = test system: SN12C renal
PC-3 prostate = test system: PC-3 prostate
SW-620 colon = test system: SW-620 colon
NCI-H226 lung = test system: NCI-H226 lung
MDA-MB-468 breast = test system: MDA-MB-468 breast
SK-MEL-5 melanoma = test system: SK-MEL-5 melanoma
UO-31 renal = test system: UO-31 renal
HT29 colon = test system: HT29 colon
NCI-H23 lung = test system: NCI-H23 lung
NCI/ADR-RES ovarian = test system: NCI/ADR-RES ovarian
MOLT-4 leukemia = test system: MOLT-4 leukemia
UACC-62 melanoma = test system: UACC-62 melanoma
MCF7 breast = test system: MCF7 breast
MALME-3M melanoma = test system: MALME-3M melanoma
DU-145 prostate = test system: DU-145 prostate
RXF 393 renal = test system: RXF 393 renal
OVCAR-8 ovarian = test system: OVCAR-8 ovarian
HOP-92 NSCLC = test system: HOP-92 NSCLC
OVCAR-4 ovarian = test system: OVCAR-4 ovarian
COLO 205 colon = test system: COLO 205 colon
IGROV1 ovarian = test system: IGROV1 ovarian
MDA-MB-435 melanoma = test system: MDA-MB-435 melanoma
HOP-62 NSCLC = test system: HOP-62 NSCLC
A498 renal = test system: A498 renal
U251 glioblastoma = test system: U251 glioblastoma
A549 NSCLC = test system: A549 NSCLC
TK-10 renal = test system: TK-10 renal
RPMI-8226 leukemia = test system: RPMI-8226 leukemia
SF-268 CNS = test system: SF-268 CNS
SNB-75 CNS = test system: SNB-75 CNS
SF-539 CNS = test system: SF-539 CNS
OVCAR-5 ovarian = test system: OVCAR-5 ovarian
OVCAR-3 ovarian = test system: OVCAR-3 ovarian
HL-60(TB) leukemia = test system: HL-60(TB) leukemia
NCI-H322M lung = test system: NCI-H322M lung
SNB-19 CNS = test system: SNB-19 CNS
CAKI-1 renal = test system: CAKI-1 renal
CCRF-CEM leukemia = test system: CCRF-CEM leukemia
EKVX NSCLC = test system: EKVX NSCLC
SK-OV-3 ovarian = test system: SK-OV-3 ovarian
NCI-H460 NSCLC = test system: NCI-H460 NSCLC
KM12 colon = test system: KM12 colon
SK-MEL-28 melanoma = test system: SK-MEL-28 melanoma
NCI-H522 lung = test system: NCI-H522 lung
HS 578T breast = test system: HS 578T breast
786-0 renal = test system: 786-0 renal
K-562 leukemia = test system: K-562 leukemia
M14 melanoma = test system: M14 melanoma
HCC-2998 colon = test system: HCC-2998 colon
SR leukemia = test system: SR leukemia

Nc1ncnc2c1c(-c1cccc(OCc3ccccc3)c1)cn2C1CC(CN2CCC2)C1 (stereo unspecified)
GI50 (ACHN renal): 1.91 µM
TGI (ACHN renal): 3.71 µM
GI50 (T-47D breast): 1.49 µM
TGI (T-47D breast): 2.9 µM
GI50 (BT-549 breast): 1.37 µM
TGI (BT-549 breast): 2.68 µM
GI50 (HCT-15 colon): 1.28 µM
TGI (HCT-15 colon): 2.59 µM
GI50 (LOX IMVI melanoma): 1.61 µM
TGI (LOX IMVI melanoma): 2.97 µM
GI50 (SF-295 CNS): 1.89 µM
TGI (SF-295 CNS): 3.31 µM
GI50 (MDA-MB-231 breast): 1.66 µM
TGI (MDA-MB-231 breast): 3.34 µM
GI50 (UACC-257 melanoma): 1.13 µM
TGI (UACC-257 melanoma): 2.35 µM
GI50 (SN12C renal): 2.31 µM
TGI (SN12C renal): 5.8 µM
GI50 (PC-3 prostate): 1.8 µM
TGI (PC-3 prostate): 3.46 µM
GI50 (SW-620 colon): 1.33 µM
TGI (SW-620 colon): 2.63 µM
GI50 (NCI-H226 lung): 1.19 µM
TGI (NCI-H226 lung): 2.96 µM
GI50 (MDA-MB-468 breast): 1.33 µM
TGI (MDA-MB-468 breast): 2.63 µM
GI50 (SK-MEL-5 melanoma): 0.704 µM
TGI (SK-MEL-5 melanoma): 2 µM
GI50 (UO-31 renal): 1.61 µM
TGI (UO-31 renal): 3.02 µM
GI50 (HT29 colon): 0.336 µM
TGI (HT29 colon): 1.72 µM
GI50 (NCI-H23 lung): 1.1 µM
TGI (NCI-H23 lung): 2.49 µM
GI50 (NCI/ADR-RES ovarian): 1.76 µM
TGI (NCI/ADR-RES ovarian): 3.42 µM
GI50 (MOLT-4 leukemia): 1.77 µM
TGI (MOLT-4 leukemia): 3.16 µM
GI50 (UACC-62 melanoma): 1.51 µM
TGI (UACC-62 melanoma): 2.84 µM
GI50 (MCF7 breast): 0.36 µM
TGI (MCF7 breast): 1.68 µM
GI50 (MALME-3M melanoma): 1.06 µM
TGI (MALME-3M melanoma): 2.25 µM
GI50 (DU-145 prostate): 2.65 µM
TGI (DU-145 prostate): 11 µM
GI50 (RXF 393 renal): 1.59 µM
TGI (RXF 393 renal): 2.97 µM
GI50 (OVCAR-8 ovarian): 1.61 µM
TGI (OVCAR-8 ovarian): 3.01 µM
GI50 (HOP-92 NSCLC): 1.14 µM
TGI (HOP-92 NSCLC): 2.36 µM
GI50 (OVCAR-4 ovarian): 1.89 µM
TGI (OVCAR-4 ovarian): 4.04 µM
GI50 (COLO 205 colon): 0.327 µM
TGI (COLO 205 colon): 1.44 µM
GI50 (IGROV1 ovarian): 2.18 µM
TGI (IGROV1 ovarian): 4.87 µM
GI50 (MDA-MB-435 melanoma): 1.28 µM
TGI (MDA-MB-435 melanoma): 2.57 µM
GI50 (HOP-62 NSCLC): 1.82 µM
TGI (HOP-62 NSCLC): 3.25 µM
GI50 (A498 renal): 1.49 µM
TGI (A498 renal): 2.83 µM
GI50 (U251 glioblastoma): 1.87 µM
TGI (U251 glioblastoma): 3.39 µM
GI50 (A549 NSCLC): 1.55 µM
TGI (A549 NSCLC): 3.07 µM
GI50 (TK-10 renal): 1.61 µM
TGI (TK-10 renal): 3.24 µM
GI50 (RPMI-8226 leukemia): 1.83 µM
TGI (RPMI-8226 leukemia): 3.23 µM
GI50 (SF-268 CNS): 1.81 µM
TGI (SF-268 CNS): 3.23 µM
GI50 (SNB-75 CNS): 1.92 µM
TGI (SNB-75 CNS): 3.52 µM
GI50 (SF-539 CNS): 1.76 µM
TGI (SF-539 CNS): 3.15 µM
GI50 (OVCAR-5 ovarian): 1.3 µM
TGI (OVCAR-5 ovarian): 2.86 µM
GI50 (OVCAR-3 ovarian): 1.76 µM
TGI (OVCAR-3 ovarian): 3.45 µM
GI50 (HL-60(TB) leukemia): 0.182 µM
TGI (HL-60(TB) leukemia): 1.03 µM
GI50 (NCI-H322M lung): 1.65 µM
TGI (NCI-H322M lung): 4.49 µM
GI50 (SNB-19 CNS): 2.53 µM
TGI (SNB-19 CNS): 7.28 µM
GI50 (CAKI-1 renal): 1.65 µM
TGI (CAKI-1 renal): 3.22 µM
GI50 (CCRF-CEM leukemia): 2.08 µM
TGI (CCRF-CEM leukemia): 3.52 µM
GI50 (EKVX NSCLC): 1.41 µM
TGI (EKVX NSCLC): 3.1 µM
GI50 (SK-OV-3 ovarian): 1.75 µM
TGI (SK-OV-3 ovarian): 3.16 µM
GI50 (NCI-H460 NSCLC): 1.34 µM
TGI (NCI-H460 NSCLC): 2.69 µM
GI50 (KM12 colon): 1.82 µM
TGI (KM12 colon): 3.76 µM
GI50 (SK-MEL-28 melanoma): 1.43 µM
TGI (SK-MEL-28 melanoma): 2.74 µM
GI50 (NCI-H522 lung): 1.72 µM
TGI (NCI-H522 lung): 3.12 µM
GI50 (HS 578T breast): 1.82 µM
TGI (HS 578T breast): 3.23 µM
GI50 ([…]-0 renal): 1.61 µM
TGI (786-0 renal): 2.97 µM
GI50 (K-562 leukemia): 1.69 µM
TGI (K-562 leukemia): 3.1 µM
GI50 (M14 melanoma): 1.62 µM
TGI (M14 melanoma): 2.98 µM
GI50 (HCC-2998 colon): 1.4 µM
TGI (HCC-2998 colon): 2.72 µM
GI50 (SR leukemia): 1.65 µM
TGI (SR leukemia): 3.02 µM

Source: PubChem BioAssay (NCI)
